How the values were obtained:
Type in all cases: functional
[1] = test system: Mycobacterium tuberculosis; experiment: Antimycobacterial activity against Mycobacterium tuberculosis H37Rv at 6.25 ug/ml
Escherichia coli = experiment: Antibacterial activity against Escherichia coli by […]
Staphylococcus aureus = experiment: Antibacterial activity against Staphylococcus aureus by […]

| SMILES | -log(inh/100-inh) [1] | inhibition zone (IZ) (Escherichia coli) | inhibition zone (IZ) (Staphylococcus aureus) |
| --- | --- | --- | --- |
| Cc1ccc2c(Cl)c(C)c(N3CCCCC3)nc2n1 | -0.6886 | – | – |
| CCOC(=O)N1CCN(c2cc(-c3ccccc3)c3ccc(N4CCNCC4)nc3n2)CC1 | 1.0607 | 25 mm | 23 mm |
| CCOC(=O)N1CCN(c2nc3nc(N4CCOCC4)ccc3cc2-c2ccccc2)CC1 | 0.2499 | 17 mm | 13 mm |
| CCOC(=O)N1CCN(c2nc3nc(Cl)ccc3cc2-c2ccccc2)CC1 | 0.3076 | 24 mm | – |
| COC(=O)N1CCN(c2nc3nc(OC)ccc3cc2-c2ccccc2)CC1 | -0.1224 | 12 mm | 16 mm |
| c1ccc(-c2cc3ccc(N4CCNCC4)nc3nc2N2CCNCC2)cc1 | 0.432 | 12 mm | 14 mm |
| c1ccc(-c2cc3ccc(N4CCCCC4)nc3nc2N2CCNCC2)cc1 | 0.8653 | 18 mm | – |
| COc1ccc2cc(-c3ccccc3)c(N3CCNCC3)nc2n1 | 0.3076 | 16 mm | 12 mm |
| Cc1ccc2c(Cl)c(C)c(Cl)nc2n1 | -1.9956 | – | – |
| Cc1ccc2c(Cl)c(Cc3ccccc3)c(C)nc2n1 | 0.0872 | – | – |
| Cc1ccc2c(Cl)c(Cc3ccccc3)c(N3CCOCC3)nc2n1 | -0.6021 | – | – |
| Cc1ccc2c(Cl)c(Cc3ccccc3)c(N3CCCCC3)nc2n1 | -0.1581 | – | – |
| Cc1ccc2c(N3CCOCC3)c(C)c(N3CCCCC3)nc2n1 | -0.908 | – | – |
| Cc1ccc2c(N3CCOCC3)c(Cc3ccccc3)c(N3CCCCC3)nc2n1 | -0.6021 | – | – |
| Cc1ccc2c(N3CCCCC3)c(Cc3ccccc3)c(N3CCCCC3)nc2n1 | 1.3802 | – | – |
| Oc1ccc2c(Cl)cc(N3CCOCC3)nc2n1 | -1.6902 | – | – |
| Clc1ccc2c(Cl)cc(N3CCOCC3)nc2n1 | -0.2126 | – | – |
| Clc1cc(N2CCOCC2)nc2nc(N3CCCCC3)ccc12 | -0.432 | – | – |
| c1cc2c(N3CCOCC3)cc(N3CCOCC3)nc2nc1N1CCOCC1 | -0.908 | – | – |
| c1cc2c(N3CCCCC3)cc(N3CCOCC3)nc2nc1N1CCCCC1 | -0.1224 | – | – |

| SMILES | -log(inh/100-inh) [1] | inhibition zone (IZ) (Escherichia coli) | inhibition zone (IZ) (Staphylococcus aureus) |
| --- | --- | --- | --- |
| Oc1ccc2c(N3CCOCC3)cc(N3CCOCC3)nc2n1 | -1.0048 | – | – |
| Clc1ccc2c(N3CCOCC3)cc(N3CCOCC3)nc2n1 | -1.9956 | – | – |
| Clc1ccc2c(N3CCCCC3)cc(N3CCOCC3)nc2n1 | -1.0607 | – | – |
| c1cc2c(N3CCCCC3)cc(N3CCOCC3)nc2nc1N1CCOCC1 | -0.908 | – | – |
| CC(=O)Nc1ccc2c(Cl)cc(N3CCCCC3)nc2n1 | -1.0607 | – | – |
| Nc1ccc2c(Cl)cc(N3CCCCC3)nc2n1 | -0.2126 | – | – |
| Nc1ccc2c(N3CCCCC3)cc(N3CCNCC3)nc2n1 | 0.4102 | – | – |
| Nc1ccc2c(N3CCCCC3)cc(N3CCOCC3)nc2n1 | -1.195 | – | – |
| O=C(CCc1ccc2c(-c3ccccc3)cc(O)nc2n1)OCCN1CCNCC1 | -0.7202 | – | – |
| Oc1cc(-c2ccccc2)c2ccc(N3CCNCC3)nc2n1 | -0.908 | – | – |
| c1ccc(-c2cc(N3CCCCC3)nc3nc(N4CCCCC4)ccc23)cc1 | 1.9956 | 28 mm | 14 mm |
| c1ccc(-c2cc(N3CCOCC3)nc3nc(N4CCOCC4)ccc23)cc1 | – | – | 12 mm |
| c1ccc(-c2cc(CCN3CCNCC3)nc3nc(CCN4CCNCC4)ccc23)cc1 | 0.6297 | 12 mm | 12 mm |
| c1cc(N2CCNCC2)ccc1-c1ccc2ccc(-c3ccc(N4CCNCC4)cc3)nc2n1 | -0.0522 | 18 mm | 12 mm |
| Nc1ccc2c(-c3ccccc3)cc(N3CCCCC3)nc2n1 | 1.0048 | 20 mm | 14 mm |
| Nc1ccc2c(-c3ccccc3)cc(N3CCOCC3)nc2n1 | -0.0522 | 33 mm | 20 mm |
| Nc1ccc2c(-c3ccccc3)cc(CCN3CCNCC3)nc2n1 | 0.3475 | 36 mm | 16 mm |
| Nc1ccc(-c2ccc3ccc(-c4ccc(N5CCNCC5)cc4)nc3n2)cc1 | 1.195 | 32 mm | 16 mm |
| Oc1ccc2c(-c3ccccc3)cc(N3CCCCC3)nc2n1 | – | – | 24 mm |
| Oc1ccc2c(-c3ccccc3)cc(N3CCOCC3)nc2n1 | – | 26 mm | 20 mm |

| SMILES | -log(inh/100-inh) [1] | inhibition zone (IZ) (Escherichia coli) | inhibition zone (IZ) (Staphylococcus aureus) |
| --- | --- | --- | --- |
| Oc1ccc2c(-c3ccccc3)cc(CCN3CCNCC3)nc2n1 | -0.3889 | – | 12 mm |
| Oc1ccc(-c2ccc3c(-c4ccccc4)cc(-c4ccc(N5CCNCC5)cc4)nc3n2)cc1 | -0.3274 | 14 mm | 14 mm |
| Clc1ccc2c(-c3ccccc3)cc(N3CCCCC3)nc2n1 | 0.368 | – | 26 mm |
| Clc1ccc2c(-c3ccccc3)cc(N3CCOCC3)nc2n1 | -0.2499 | 12 mm | 18 mm |
| Clc1ccc2c(-c3ccccc3)cc(CCN3CCNCC3)nc2n1 | 0.3274 | 16 mm | – |
| Clc1ccc(-c2ccc3c(-c4ccccc4)cc(-c4ccc(N5CCNCC5)cc4)nc3n2)cc1 | 0.0871 | 14 mm | 22 mm |
| COc1ccc2c(-c3ccccc3)cc(N3CCCCC3)nc2n1 | 0.7533 | 20 mm | – |
| COc1ccc2c(-c3ccccc3)cc(N3CCOCC3)nc2n1 | -0.2689 | 24 mm | – |
| COc1ccc2c(-c3ccccc3)cc(CCN3CCNCC3)nc2n1 | 0.4102 | – | – |
| COc1ccc(-c2ccc3ccc(-c4ccc(N5CCNCC5)cc4)nc3n2)cc1 | 0.7884 | – | 28 mm |
| c1ccc(-c2cc3ccc(N4CCCCC4)nc3nc2N2CCCCC2)cc1 | 1.9956 | 20 mm | 16 mm |
| O=[N+]([O-])c1cc2cc(-c3ccccc3)c(N3CCCCC3)nc2nc1N1CCCCC1 | 0.5754 | – | 30 mm |
| Nc1cc2cc(-c3ccccc3)c(N3CCCCC3)nc2nc1N1CCCCC1 | 0.3889 | 26 mm | – |
| CCOC(=O)N1CCN(c2ccc3cc(-c4ccccc4)c(N4CCCCC4)nc3n2)CC1 | 1.0048 | 18 mm | 15 mm |
| c1ccc(-c2cc3ccc(N4CCNCC4)nc3nc2N2CCCCC2)cc1 | 0.908 | 14 mm | 18 mm |
| c1ccc(-c2cc3ccc(N4CCOCC4)nc3nc2N2CCCCC2)cc1 | 0.6886 | 26 mm | 22 mm |
| Nc1ccc2cc(-c3ccccc3)c(N3CCCCC3)nc2n1 | 0.1581 | – | 18 mm |
| CCOC(=O)N1CCN(c2ccc3cc(-c4ccccc4)c(N4CCN(C(=O)OCC)CC4)nc3n2)CC1 | -0.0348 | 18 mm | 17 mm |
